Results on nine molecules are retold here after publication PMC10886162, “Synthesis of Novel Artemisinin, Ciprofloxacin, and Norfloxacin Hybrids with Potent Antiplasmodial Activity” (Antibiotics, 2024).

Values joined by “and” are separate entries in the source; they are usually repeats but may differ in a detail not shown here. Equal entries are not always repeated.

In series [1] the test system is CQ-resistant Dd2 strain of P. falciparum. Put plainly: In vitro growth inhibition of P. falciparum Dd2 ([3H]-hypoxanthine incorporation). Format: cell-based, Plasmodium falciparum. The settings on record: for IC50: Plasmodium falciparum, CQ-resistant Dd2, mean +/− SD of at least three independent experiments; for Selectivity Index (IC50 AB943/IC50 Dd2): ratio of cytotoxicity IC50 to antiplasmodial IC50 (Dd2). As for the experimental part: (§1) The chloroquine-resistant FcB1/Colombia and Dd2/Indochina strains of Plasmodium falciparum were obtained from the Protist Collection of the National Museum of Natural History, Paris, France (n° MNHN-CEU-2016-224-PfFCB1 and MNHN-CEU-2016-222-PfDD2). The parasites were maintained in vitro on human erythrocytes in RPMI 1640 medium supplemented by 8% (v/v) heat-inactivated human serum, at 37 °C, under an atmosphere of 5% CO2. The human red blood cells and serum were provided by the Établissement Français du Sang under the C-CPSL-UNT approval no. 13/EFS/126. The in vitro drug susceptibility assays were measured by [^3H]-hypoxanthine incorporation, as previously described. The drug stock solutions were prepared in DMSO. Briefly, the assays were performed in 96-well plates. The compounds were diluted in the culture medium (100 μL per well). The parasite cultures (100 μL, 2% parasitaemia, and 1% final hematocrit) were then added to each well and incubated for 24 h at 37 °C prior to the addition of 0.5 μCi of [^3H]- hypoxanthine (GE Healthcare, Paris, France, 1 to 5 Ci·mmol/mL) per well. After a further incubation of 24 h, the plates were frozen and thawed. The cell lysates were then collected onto fiberglass filters and counted in a liquid scintillation spectrometer. The growth inhibition for each drug concentration was determined through a comparison of the radioactivity incorporated in the treated culture with that in the control culture maintained on the same plate. The drugs were first evaluated for a range of fixed concentrations of 50, 5, 0.5, 0.05, and 0.005 μg/mL. […] The IC50 value was obtained from the drug concentration–response curve, and the results were expressed in μM or nM as the mean values ± standard deviations determined from several independent experiments. Artesunate (46) was used as an antimalarial drug control.

The test system of series [2] is CQ-resistant P. falciparum FcB1 strain. In words: In vitro growth inhibition of P. falciparum FcB1 ([3H]-hypoxanthine incorporation). The class given is cell-based, Plasmodium falciparum. The settings on record: for IC50: Plasmodium falciparum; for Selectivity Index (IC50 AB943/IC50 FcB1): ratio of cytotoxicity IC50 to antiplasmodial IC50 (FcB1). As for the experimental part:
as §1

The subject of series [3] is human primary fibroblasts AB943. In words: Cytotoxicity upon human primary fibroblasts AB943 (resazurin). The settings on record: Fibroblast, 72 h, mean +/− SD of at least three independent experiments. The class given is cell-based. As for the experimental part: A cellular cytotoxicity evaluation was performed upon human primary fibroblasts AB943, as previously described. The assays were realized in 96-well plates in DMEM + Glutamax without phenol red medium containing 25 mM HEPES, a pH of 7.3, and 10% of fetal calf serum under a 5% CO2 atmosphere, at 37 °C. After trypsin treatment, the AB943 cells were seeded at 2000 cells per well in 100 μL. After 24 h of incubation, drugs diluted in the culture medium were added (100 μL per well). The drug stock solutions were prepared in dimethyl sulfoxide (DMSO). The final DMSO concentration in the cultures remained below 1%. Control cultures were constituted of cultures treated with DMSO instead of the drug. The cytotoxicity assay was based on the conversion of a redo-sensitive dye (resazurin) to a fluorescent product via viable cells. After 72 h of incubation, the resazurin solution was added in each well at a final concentration of 45 μM. The fluorescence was measured at 530 nm excitation and 590 nm emission wavelengths after 4 h of incubation. The percentage of the inhibition of cell growth was calculated by comparing the fluorescence of cells maintained in the presence of the drug to that in the absence of the drug. The concentration causing 50% growth inhibition (IC50) was obtained from the drug concentration–response curve, and the results were expressed as the mean values ± standard deviations determined from several experiments.
Background: Resazurin is reduced to fluorescent resorufin, in cell work by metabolically active cells.

Where [4] appears, read: FCB1, CQ-resistant FcB1, mean +/− standard deviation of independent experiments (at least four in Tables 1-2, at least three in Tables 3-4).
Where [5] appears, read: FCB1, Table 5, single compound (hybrid or AS alone).

The term IC50 denotes the concentration needed to halve the response being measured. What is called melting point is the temperature of the solid-liquid transition. With `CCn1cc(C(=O)N2CCN(c3ccnc4cc(Cl)ccc34)CC2)c(=O)c2cc(F)c(N3CCN(C(=O)CCC(=O)O[C@@H]4O[C@@H]5O[C@@]6(C)CCC7[C@H](C)CCC([C@H]4C)[C@]75OO6)CC3)cc21` (stereo partly drawn) [Compound 29, (3R,6R,9R,10S,12R,12aR)-3,6,9-trimethyldecahydro-12H-3,12-epoxy[1,2]dioxepino[4,3-i]isochromen-10-yl 4-(4-(3-(4-(7-chloroquinolin-4-yl)piperazine-1-carbonyl)-1-ethyl-6-fluoro-4-oxo-1,4-dihydroquinolin-7-yl)piperazin-1-yl)-4-oxobutanoate], the melting point lay within 168.7 to 169.6 °C. In series [1], the IC50 was 0.0182 µM and the “Selectivity Index (IC50 AB943/IC50 Dd2)” value is given as 1658. For the same molecule, the IC50 in series [2] (setting [4]) was 0.005 µM. Further, the “Selectivity Index (IC50 AB943/IC50 FcB1)” value in series [2] came to 6027. In series [3], the midpoint of inhibition, the IC50, lay at 30.3 µM.
Regarding `C[C@@H]1CCC2[C@@H](C)[C@H](OC(=O)CCC(=O)N3CCN(c4cc5c(cc4F)c(=O)c(C(=O)O)cn5C4CC4)CC3)O[C@@H]3O[C@@]4(C)CCC1[C@@]23OO4` (stereo partly drawn) [Compound 20, 1-cyclopropyl-6-fluoro-4-oxo-7-(4-(4-oxo-4-(((3R,6R,9R,10S,12R,12aR)-3,6,9-trimethyldecahydro-12H-3,12-epoxy[1,2]dioxepino[4,3-i]isochromen-10-yl)oxy)butanoyl)piperazin-1-yl)-1,4-dihydroquinoline-3-carboxylic acid], the melting point fell in the range of 103.4 to 104.5 °C. Further, in series [1], the IC50 is 0.008 µM and the “Selectivity Index (IC50 AB943/IC50 Dd2)” value is reported as 5146. Besides, the IC50 in series [2] (setting [4]) was 0.004 µM. The “Selectivity Index (IC50 AB943/IC50 FcB1)” value in series [2] is 10,318. For the same molecule, it took 41.3 µM to reach half-maximal inhibition in series [3] (IC50).
Take `CCOC(=O)c1cn(CC)c2cc(N3CCN(C(=O)C[C@H]4O[C@@H]5O[C@@]6(C)CCC7[C@H](C)CCC([C@H]4C)[C@]75OO6)CC3)c(F)cc2c1=O` (stereo partly drawn) [Compound 18, Ethyl 1-ethyl-6-fluoro-4-oxo-7-(4-(2-((3R,6R,9R,10R,12R,12aR)-3,6,9-trimethyldecahydro-12H-3,12-epoxy[1,2]dioxepino[4,3-i]isochromen-10-yl)acetyl)piperazin-1-yl)-1,4-dihydroquinoline-3-carboxylate]: the melting point is 135.1 to 136 °C. Further, in series [1], the IC50 was found to be 0.0587 µM and the “Selectivity Index (IC50 AB943/IC50 Dd2)” value came out at 925. Also, the IC50 in series [2] (setting [4]) is 0.0255 µM. Besides, the “Selectivity Index (IC50 AB943/IC50 FcB1)” value in series [2] is recorded as 2129. This molecule displayed an IC50 in series [3] of 54.3 µM.
The molecule `CCCCOC(=O)c1cn(CC)c2cc(N3CCN(C(=O)CCC(=O)O[C@@H]4O[C@@H]5O[C@@]6(C)CCC7[C@H](C)CCC([C@H]4C)[C@]75OO6)CC3)c(F)cc2c1=O` (stereo partly drawn) [Compound 24, Butyl 1-ethyl-6-fluoro-4-oxo-7-(4-(4-oxo-4-(((3R,6R,9R,10S,12R,12aR)-3,6,9-trimethyldecahydro-12H-3,12-epoxy[1,2]dioxepino[4,3-i]isochromen-10-yl)oxy)butanoyl)piperazin-1-yl)-1,4-dihydroquinoline-3-carboxylate] gave a melting point of 155 to 156 °C. Also, in series [1], the IC50 was found to be 0.0092 µM and the “Selectivity Index (IC50 AB943/IC50 Dd2)” value stood at 3311. Further, the IC50 in series [2] (setting [4]) came to 0.0019 µM. Moreover, the IC50 in series [2] (setting [5]) came out at 0.0019 µM. In series [2], the “Selectivity Index (IC50 AB943/IC50 FcB1)” value was 16,000 and 16,047. The same molecule gave a half-maximal inhibitory concentration (IC50) in series [3] of 30.3 µM.
`CCCCOC(=O)c1cn(C2CC2)c2cc(N3CCN(C(=O)C[C@H]4O[C@@H]5O[C@@]6(C)CCC7[C@H](C)CCC([C@H]4C)[C@]75OO6)CC3)c(F)cc2c1=O` (stereo partly drawn) [Compound 16, Butyl 1-cyclopropyl-6-fluoro-4-oxo-7-(4-(2-((3R,6R,9R,10R,12R,12aR)-3,6,9-trimethyldecahydro-12H-3,12-epoxy[1,2]dioxepino[4,3-i]isochromen-10-yl)acetyl)piperazin-1-yl)-1,4-dihydroquinoline-3-carboxylate]: the melting point was in the range of 105 to 106 °C. In series [1], the IC50 stood at 0.024 µM and the “Selectivity Index (IC50 AB943/IC50 Dd2)” value worked out at 622. In addition, the IC50 in series [2] (setting [4]) was 0.0075 µM. Also, the “Selectivity Index (IC50 AB943/IC50 FcB1)” value in series [2] was determined as 2000. In series [3], the IC50 was found to be 14.9 µM.
The molecule `C[C@@H]1CCC2[C@@H](C)[C@@H](CC(=O)N3CCN(c4cc5c(cc4F)c(=O)c(C(=O)N4CCN(c6ccnc7cc(Cl)ccc67)CC4)cn5C4CC4)CC3)O[C@@H]3O[C@@]4(C)CCC1[C@@]23OO4` (stereo partly drawn) [Compound 25, 3-(4-(7-chloroquinolin-4-yl)piperazine-1-carbonyl)-1-cyclopropyl-6-fluoro-7-(4-(2-((3R,6R,9R,10R,12R,12aR)-3,6,9-trimethyldecahydro-12H-3,12-epoxy[1,2]dioxepino[4,3-i]isochromen-10-yl)acetyl)piperazin-1-yl)quinolin-4(1H)-one] registered a melting point of 160.2 to 161.3 °C. In series [1], the IC50 was 0.0177 µM and the “Selectivity Index (IC50 AB943/IC50 Dd2)” value stood at 220. Further, in series [2] (setting [4]), the IC50 was 0.0075 µM. The “Selectivity Index (IC50 AB943/IC50 FcB1)” value in series [2] was determined as 521. The same molecule had an IC50 in series [3] of 3.9 µM.
Take `CCOC(=O)c1cn(C2CC2)c2cc(N3CCN(C(=O)CCC(=O)O[C@@H]4O[C@@H]5O[C@@]6(C)CCC7[C@H](C)CCC([C@H]4C)[C@]75OO6)CC3)c(F)cc2c1=O` (stereo partly drawn) [Compound 21, Ethyl 1-cyclopropyl-6-fluoro-4-oxo-7-(4-(4-oxo-4-(((3R,6R,9R,10S,12R,12aR)-3,6,9-trimethyldecahydro-12H-3,12-epoxy[1,2]dioxepino[4,3-i]isochromen-10-yl)oxy)butanoyl)piperazin-1-yl)-1,4-dihydroquinoline-3-carboxylate]: the melting point was 115.4 to 116.2 °C. For the same molecule, in series [1], the IC50 amounted to 0.016 µM and the “Selectivity Index (IC50 AB943/IC50 Dd2)” value is 3302. Also, the IC50 in series [2] (setting [4]) came to 0.0054 µM. The “Selectivity Index (IC50 AB943/IC50 FcB1)” value in series [2] was found to be 9826. Further, half-maximal inhibition in series [3] (IC50) required 52.8 µM.
`CCOC(=O)c1cn(CC)c2cc(N3CCN(C(=O)CCC(=O)O[C@@H]4O[C@@H]5O[C@@]6(C)CCC7[C@H](C)CCC([C@H]4C)[C@]75OO6)CC3)c(F)cc2c1=O` (stereo partly drawn) [Compound 23, Ethyl 1-ethyl-6-fluoro-4-oxo-7-(4-(4-oxo-4-(((3R,6R,9R,10S,12R,12aR)-3,6,9-trimethyldecahydro-12H-3,12-epoxy[1,2]dioxepino[4,3-i]isochromen-10-yl)oxy)butanoyl)piperazin-1-yl)-1,4-dihydroquinoline-3-carboxylate] showed a melting point of 140 to 141.1 °C. Moreover, in series [1], the IC50 came out at 0.0035 µM and the “Selectivity Index (IC50 AB943/IC50 Dd2)” value is listed as 12,488. The IC50 in series [2] (setting [4]) amounted to 0.0015 µM. The IC50 in series [2] (setting [5]) stood at 0.0015 µM. For the same molecule, the “Selectivity Index (IC50 AB943/IC50 FcB1)” value in series [2] was 28,000 and 28,382. The IC50 in series [3] is 43.7 µM.
For the molecule `C[C@@H]1CCC2[C@@H](C)[C@H](OC(=O)CCC(=O)N3CCN(c4cc5c(cc4F)c(=O)c(C(=O)N4CCN(c6ccnc7cc(Cl)ccc67)CC4)cn5C4CC4)CC3)O[C@@H]3O[C@@]4(C)CCC1[C@@]23OO4` (stereo partly drawn) [Compound 28, (3R,6R,9R,10S,12R,12aR)-3,6,9-trimethyldecahydro-12H-3,12-epoxy[1,2]dioxepino[4,3-i]isochromen-10-yl 4-(4-(3-(4-(7-chloroquinolin-4-yl)piperazine-1-carbonyl)-1-cyclopropyl-6-fluoro-4-oxo-1,4-dihydroquinolin-7-yl)piperazin-1-yl)-4-oxobutanoate], the melting point lay in the range of 157 to 158.2 °C. For the same molecule, in series [1], the IC50 was found to be 0.0124 µM and the “Selectivity Index (IC50 AB943/IC50 Dd2)” value was 1582. The IC50 in series [2] (setting [4]) came out at 0.0049 µM. Further, the “Selectivity Index (IC50 AB943/IC50 FcB1)” value in series [2] stood at 4046. The same molecule yielded an IC50 in series [3] of 19.6 µM.
